Test results published in ChEMBL document CHEMBL4610054, “Design, synthesis, and structure-activity relationship studies of novel triazole agents with strong antifungal activity against Aspergillus fumigatus” (2020).
Converted amounts (≈) assume the structure as drawn.

Assays:
Type in all cases: functional
[1] = test system: Candida albicans; test: Antifungal activity against Candida albicans SC5314 by NCCLS protocol based broth microdilution assay
[2] = test system: Cryptococcus neoformans; test: Antifungal activity against Cryptococcus neoformans 32605 by NCCLS protocol based broth microdilution assay
[3] = test system: Aspergillus fumigatus; test: Antifungal activity against Aspergillus fumigatus 7544 by NCCLS protocol based broth microdilution assay
[4] = test system: Candida albicans; test: Antifungal activity against Candida albicans Y0109 by NCCLS protocol based broth microdilution assay
[5] = test system: Candida parapsilosis; test: Antifungal activity against Candida parapsilosis 22019 by NCCLS protocol based broth microdilution assay; conditions: Lodderomyces parapsilosis
[6] = test system: Nakaseomyces glabratus; test: Antifungal activity against Candida glabrata 537 by NCCLS protocol based broth microdilution assay
[7] = test system: Nannizzia gypsea; test: Antifungal activity against Microsporum gypseum CMCC by NCCLS protocol based broth microdilution assay
[8] = test system: Candida albicans; test: Antifungal activity against fluconazole-resistant Candida albicans isolate 100 by NCCLS protocol based broth microdilution method
[9] = test system: Candida albicans; test: Antifungal activity against fluconazole-resistant Candida albicans isolate 103 by NCCLS protocol based broth microdilution method

| SMILES | MIC [1] | MIC [2] | MIC [3] | MIC [4] | MIC [5] | MIC [6] | MIC [7] | MIC [8] | MIC [9] |
| --- | --- | --- | --- | --- | --- | --- | --- | --- | --- |
| C[C@@H](n1nnc2cccc(Cl)c2c1=O)[C@](O)(Cn1cncn1)c1ccc(F)cc1F | 0.25 µg/mL (≈ 0.578 µM) | 0.0625 µg/mL (≈ 0.144 µM) | 32 µg/mL (≈ 73.9 µM) |  |  |  |  |  |  |
| C[C@@H](n1nnc2ccc([N+](=O)[O-])cc2c1=O)[C@](O)(Cn1cncn1)c1ccc(F)cc1F | 0.5 µg/mL (≈ 1.13 µM) | 2 µg/mL (≈ 4.51 µM) | > 64 µg/mL |  |  |  |  |  |  |
| C[C@@H](n1nnc2cc(Cl)ccc2c1=O)[C@](O)(Cn1cncn1)c1ccc(F)cc1F | 0.0156 µg/mL (≈ 0.036 µM) | 0.0313 µg/mL (≈ 0.0723 µM) | 0.25 µg/mL (≈ 0.578 µM) | 0.0156 µg/mL (≈ 0.036 µM) | 0.0156 µg/mL (≈ 0.036 µM) | 0.0156 µg/mL (≈ 0.036 µM) | 0.25 µg/mL (≈ 0.578 µM) | 8 µg/mL (≈ 18.5 µM) | 2 µg/mL (≈ 4.62 µM) |
| C[C@@H](n1nnc2cc(F)c(F)cc2c1=O)[C@](O)(Cn1cncn1)c1ccc(F)cc1F | 0.0313 µg/mL (≈ 0.0721 µM) | 0.5 µg/mL (≈ 1.15 µM) | 2 µg/mL (≈ 4.6 µM) | 0.0156 µg/mL (≈ 0.0359 µM) | 0.0313 µg/mL (≈ 0.0721 µM) | 0.0625 µg/mL (≈ 0.144 µM) | 1 µg/mL (≈ 2.3 µM) |  |  |
| C[C@@H](n1nnc2cc(Br)ccc2c1=O)[C@](O)(Cn1cncn1)c1ccc(F)cc1F | 0.0156 µg/mL (≈ 0.0327 µM) | 0.0625 µg/mL (≈ 0.131 µM) | 0.5 µg/mL (≈ 1.05 µM) | 0.0156 µg/mL (≈ 0.0327 µM) | 0.0313 µg/mL (≈ 0.0656 µM) | 0.0156 µg/mL (≈ 0.0327 µM) | 0.5 µg/mL (≈ 1.05 µM) | 16 µg/mL (≈ 33.5 µM) | 32 µg/mL (≈ 67 µM) |
| COc1ccc2nnn([C@H](C)[C@](O)(Cn3cncn3)c3ccc(F)cc3F)c(=O)c2c1 | 0.0625 µg/mL (≈ 0.146 µM) | 1 µg/mL (≈ 2.33 µM) | 32 µg/mL (≈ 74.7 µM) |  |  |  |  |  |  |
| C[C@@H](n1nnc2c(ccc3ccccc32)c1=O)[C@](O)(Cn1cncn1)c1ccc(F)cc1F | 0.125 µg/mL (≈ 0.279 µM) | 0.5 µg/mL (≈ 1.11 µM) | > 64 µg/mL |  |  |  |  |  |  |
| Cc1ccc2nnn([C@H](C)[C@](O)(Cn3cncn3)c3ccc(F)cc3F)c(=O)c2c1 | 0.0625 µg/mL (≈ 0.152 µM) | 0.25 µg/mL (≈ 0.606 µM) | 16 µg/mL (≈ 38.8 µM) |  |  |  |  |  |  |
| C[C@@H](n1nnc2ccc(Cl)cc2c1=O)[C@](O)(Cn1cncn1)c1ccc(F)cc1F | 0.0313 µg/mL (≈ 0.0723 µM) | 0.5 µg/mL (≈ 1.16 µM) | > 64 µg/mL |  |  |  |  |  |  |
| C[C@@H](n1nnc2cc([N+](=O)[O-])ccc2c1=O)[C@](O)(Cn1cncn1)c1ccc(F)cc1F | 0.0156 µg/mL (≈ 0.0352 µM) | 0.25 µg/mL (≈ 0.564 µM) | 4 µg/mL (≈ 9.02 µM) | 0.0156 µg/mL (≈ 0.0352 µM) | 0.0313 µg/mL (≈ 0.0706 µM) | 0.0313 µg/mL (≈ 0.0706 µM) | 4 µg/mL (≈ 9.02 µM) |  |  |
| C[C@@H](n1nnc2ccc(F)cc2c1=O)[C@](O)(Cn1cncn1)c1ccc(F)cc1F | 0.0625 µg/mL (≈ 0.15 µM) | 0.25 µg/mL (≈ 0.6 µM) | 16 µg/mL (≈ 38.4 µM) |  |  |  |  |  |  |
| C[C@@H](n1nnc2cc(F)ccc2c1=O)[C@](O)(Cn1cncn1)c1ccc(F)cc1F | 0.0156 µg/mL (≈ 0.0375 µM) | 0.25 µg/mL (≈ 0.6 µM) | 1 µg/mL (≈ 2.4 µM) | 0.0156 µg/mL (≈ 0.0375 µM) | 0.0313 µg/mL (≈ 0.0752 µM) | 0.0313 µg/mL (≈ 0.0752 µM) | 2 µg/mL (≈ 4.8 µM) | 32 µg/mL (≈ 76.9 µM) | 64 µg/mL (≈ 154 µM) |
| C[C@@H](n1nnc2ccccc2c1=O)[C@](O)(Cn1cncn1)c1ccc(F)cc1F | 0.0313 µg/mL (≈ 0.0786 µM) | 0.25 µg/mL (≈ 0.628 µM) | 4 µg/mL (≈ 10 µM) | 0.0156 µg/mL (≈ 0.0392 µM) | 0.0313 µg/mL (≈ 0.0786 µM) | 0.0625 µg/mL (≈ 0.157 µM) | 2 µg/mL (≈ 5.02 µM) |  |  |
| C[C@@H](n1nnc2ccc(Br)cc2c1=O)[C@](O)(Cn1cncn1)c1ccc(F)cc1F | 0.125 µg/mL (≈ 0.262 µM) | 2 µg/mL (≈ 4.19 µM) | > 64 µg/mL |  |  |  |  |  |  |
| OC(Cn1cncn1)(Cn1cncn1)c1ccc(F)cc1F [FLUCONAZOLE] | 0.5 µg/mL (≈ 1.63 µM) | 0.5 µg/mL (≈ 1.63 µM) | > 64 µg/mL | 0.5 µg/mL (≈ 1.63 µM) | 1 µg/mL (≈ 3.27 µM) | 2 µg/mL (≈ 6.53 µM) | 32 µg/mL (≈ 104 µM) | > 64 µg/mL | > 64 µg/mL |
| C[C@@H](n1nnc2cc(C(F)(F)F)ccc2c1=O)[C@](O)(Cn1cncn1)c1ccc(F)cc1F | 0.0156 µg/mL (≈ 0.0334 µM) | 0.125 µg/mL (≈ 0.268 µM) | 4 µg/mL (≈ 8.58 µM) | 0.0156 µg/mL (≈ 0.0334 µM) | 0.0313 µg/mL (≈ 0.0671 µM) | 0.0313 µg/mL (≈ 0.0671 µM) | 2 µg/mL (≈ 4.29 µM) |  |  |
| Cc1ccc2c(=O)n([C@H](C)[C@](O)(Cn3cncn3)c3ccc(F)cc3F)nnc2c1 | 0.0156 µg/mL (≈ 0.0378 µM) | 0.125 µg/mL (≈ 0.303 µM) | 2 µg/mL (≈ 4.85 µM) | 0.0156 µg/mL (≈ 0.0378 µM) | 0.0313 µg/mL (≈ 0.0759 µM) | 0.0156 µg/mL (≈ 0.0378 µM) | 2 µg/mL (≈ 4.85 µM) |  |  |
| C[C@@H](n1nnc2c(Br)cccc2c1=O)[C@](O)(Cn1cncn1)c1ccc(F)cc1F | 0.5 µg/mL (≈ 1.05 µM) | 0.25 µg/mL (≈ 0.524 µM) | > 64 µg/mL |  |  |  |  |  |  |
| C[C@@H](n1nnc2c(Cl)cccc2c1=O)[C@](O)(Cn1cncn1)c1ccc(F)cc1F | 0.25 µg/mL (≈ 0.578 µM) | 0.25 µg/mL (≈ 0.578 µM) | > 64 µg/mL |  |  |  |  |  |  |
| C[C@@H](n1cnc2cc(Cl)ccc2c1=O)[C@](O)(Cn1cncn1)c1ccc(F)cc1F [ALBACONAZOLE] | 0.0313 µg/mL (≈ 0.0725 µM) | 0.0313 µg/mL (≈ 0.0725 µM) | 0.25 µg/mL (≈ 0.579 µM) | 0.0156 µg/mL (≈ 0.0361 µM) | 0.0156 µg/mL (≈ 0.0361 µM) | 0.0625 µg/mL (≈ 0.145 µM) | 1 µg/mL (≈ 2.32 µM) | 8 µg/mL (≈ 18.5 µM) | 4 µg/mL (≈ 9.26 µM) |
| C[C@@H](n1nnc2c(F)cccc2c1=O)[C@](O)(Cn1cncn1)c1ccc(F)cc1F | 0.5 µg/mL (≈ 1.2 µM) | 0.0313 µg/mL (≈ 0.0752 µM) | > 64 µg/mL |  |  |  |  |  |  |
| C[C@@H](n1nnc2cccc(F)c2c1=O)[C@](O)(Cn1cncn1)c1ccc(F)cc1F | 0.5 µg/mL (≈ 1.2 µM) | 0.0625 µg/mL (≈ 0.15 µM) | > 64 µg/mL |  |  |  |  |  |  |
| C[C@@H](n1nnc2cc(I)ccc2c1=O)[C@](O)(Cn1cncn1)c1ccc(F)cc1F | 0.0156 µg/mL (≈ 0.0298 µM) | 0.125 µg/mL (≈ 0.238 µM) | 1 µg/mL (≈ 1.91 µM) | 0.0156 µg/mL (≈ 0.0298 µM) | 0.0625 µg/mL (≈ 0.119 µM) | 0.0313 µg/mL (≈ 0.0597 µM) | 1 µg/mL (≈ 1.91 µM) | > 64 µg/mL | > 64 µg/mL |
| C[C@@H](n1nnc2ccc(I)cc2c1=O)[C@](O)(Cn1cncn1)c1ccc(F)cc1F | 0.125 µg/mL (≈ 0.238 µM) | 0.5 µg/mL (≈ 0.954 µM) | 32 µg/mL (≈ 61 µM) |  |  |  |  |  |  |
| COc1ccc2c(=O)n([C@H](C)[C@](O)(Cn3cncn3)c3ccc(F)cc3F)nnc2c1 | 0.0156 µg/mL (≈ 0.0364 µM) | 0.125 µg/mL (≈ 0.292 µM) | 2 µg/mL (≈ 4.67 µM) | 0.0156 µg/mL (≈ 0.0364 µM) | 0.0313 µg/mL (≈ 0.0731 µM) | 0.0156 µg/mL (≈ 0.0364 µM) | 2 µg/mL (≈ 4.67 µM) |  |  |
| C[C@@H](n1nnc2ccc(C(F)(F)F)cc2c1=O)[C@](O)(Cn1cncn1)c1ccc(F)cc1F | 0.25 µg/mL (≈ 0.536 µM) | 2 µg/mL (≈ 4.29 µM) | > 64 µg/mL |  |  |  |  |  |  |
| C[C@@H](n1nnc2cc(Cl)c(F)cc2c1=O)[C@](O)(Cn1cncn1)c1ccc(F)cc1F | 0.125 µg/mL (≈ 0.277 µM) | 0.25 µg/mL (≈ 0.555 µM) | 8 µg/mL (≈ 17.7 µM) |  |  |  |  |  |  |
| C[C@@H](c1ncncc1F)[C@](O)(Cn1cncn1)c1ccc(F)cc1F [VORICONAZOLE] | 0.0313 µg/mL (≈ 0.0896 µM) | 0.0625 µg/mL (≈ 0.179 µM) | 0.25 µg/mL (≈ 0.716 µM) | 0.0156 µg/mL (≈ 0.0447 µM) | 0.0156 µg/mL (≈ 0.0447 µM) | 0.0156 µg/mL (≈ 0.0447 µM) | 0.25 µg/mL (≈ 0.716 µM) | > 64 µg/mL | > 64 µg/mL |
| C[C@@H](n1nnc2cccc(Br)c2c1=O)[C@](O)(Cn1cncn1)c1ccc(F)cc1F | 0.25 µg/mL (≈ 0.524 µM) | 0.0625 µg/mL (≈ 0.131 µM) | 32 µg/mL (≈ 67 µM) |  |  |  |  |  |  |
